The structures appear in SMILES notation. Where “and” joins values, the source holds several entries; their conditions need not be identical. Equal values may be shown once.

For this test, the system named is Bcl-2. Briefly: Bcl-2 expression level in COLO-205 (qRT-PCR). It is filed as cell-based, human. As to the method:
qRT-PCR was used to assess the […] expression of Bax and Bcl-2. The High Pure RNA Isolation Kit (RNeasy extraction kit, up to 1 × 10^7 cells) was used to isolate total RNA from COLO-205 cells according to the manufacturer's instructions. A Transcriptor First Strand c-DNA Synthesis Kit was used to produce c-DNA from RNA according to the manufacturer's instructions; 10 μL total RNA was used for amplification Specific primers for Bax, Bcl-2, and P53 were used in PCR experiments. A LightCycler 480 PCR Master Mix was used to set up amplification reactions with a reaction volume of 20 uL. TaqMan probes and PCR primers were created and tuned. PCR Primer sequences were as following (Bax [NT], Bax [NT]. Bcl-2 [NT], and Bcl-2 […] dissociation assay was performed to evaluate any problem related to primer unspecific annealing or any secondary structure formation. Data were analyzed using SDS analysis software.

With `COc1cc(OC)c(/C=C2/C(=O)Nc3cc(Cl)ccc32)c(OC)c1` [Compound 4b, (E)-6-chloro-3-(2,4,6-trimethoxybenzylidene)indolin-2-one], the “Bcl-2 level, fold change” value (COLO-205, 4b 2.34 μM, vs control) was 0.242 fold and 0.24 fold. Moreover, for the setting “COLO-205, vs untreated COLO cells”, the “Bcl-2 protein level down-regulation, fold lower than untreated cells” value is 4.16 fold.

Values taken from paper PMC8620390, “New Multi-Targeted Antiproliferative Agents: Design and Synthesis of IC261-Based Oxindoles as Potential Tubulin, CK1 and EGFR Inhibitors” (Pharmaceuticals, 2021).
